pKd, pKi: −log10 of the molar value. Several values for one entry are separate records, joined by “and”; a condition that tells them apart may be missing. Equal entries are not always repeated. Where two headings read alike, the source gives them in different places. Blank lines part the entries; values can stand above or below the compound they belong to.
Assays:
[1] = target: TTR in human serum (Homo sapiens, UniProt P02766); experiment: TTR serum fluorescent probe exclusion (FPE) selectivity assay; type: binding; conditions: ligand 10 µM; for %FPE probe fluorescence: human serum, replicates
[2] = target: purified human TTR (Homo sapiens, UniProt P02766); experiment: Fluorescence polarization (FP) binding assay, ligands to TTR in buffer
[3] = target: holo-RBP-TTR interaction (Homo sapiens, UniProt P02766); experiment: Effect on holo-RBP-TTR interaction in human serum (cross-linking, Western blot); conditions: human serum, quantified from gel image, replicates (Supp Fig.14b)
[4] = target: human mu-opioid receptors (Homo sapiens, UniProt P35372); conditions: cited from earlier work
[5] = tested on: male Sprague-Dawley rats; conditions: cited from earlier work

Chain of human mu-opioid receptors (P35372 whole entry): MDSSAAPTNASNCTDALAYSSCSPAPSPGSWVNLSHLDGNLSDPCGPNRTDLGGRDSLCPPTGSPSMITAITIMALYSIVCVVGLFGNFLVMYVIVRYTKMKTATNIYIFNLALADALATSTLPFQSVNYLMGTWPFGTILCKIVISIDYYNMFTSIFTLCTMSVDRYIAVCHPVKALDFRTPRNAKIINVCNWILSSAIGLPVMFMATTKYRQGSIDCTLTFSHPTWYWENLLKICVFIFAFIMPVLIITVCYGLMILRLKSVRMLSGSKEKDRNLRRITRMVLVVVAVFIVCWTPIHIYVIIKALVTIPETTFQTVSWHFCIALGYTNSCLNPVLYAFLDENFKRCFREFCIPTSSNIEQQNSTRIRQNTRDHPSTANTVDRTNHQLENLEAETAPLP

% TTR occupancy in human serum ([1]; FPE probe 3.6 µM, 3 h reading relative to probe alone, text mean ± s.d., table replicates): 80.97% and 81.01% and 82.98% and 80.85% | %FPE probe fluorescence ([1]; time 0.000 h): 0.000% | %FPE probe fluorescence ([1]; time 0.083 h): 1.647% and 2.385% and -0.604% and 3.064% | %FPE probe fluorescence ([1]; time 0.250 h): 1.886% and 5.252% and 4.502% and 2.159% | %FPE probe fluorescence ([1]; time 0.500 h): 6.344% and 5.631% and 7.192% and 4.320% | pKd ([2]; FP assay, Kd from IC50 by Cheng-Prusoff, read-out: binding affinity to TTR in buffer (Kd)): 7.16 | % Fluorescence polarization (mean) ([2]; log [nM] inhibitor 0.990): 100.000% | % Fluorescence polarization (mean) ([2]; log [nM] inhibitor 1.291): 100.180% | % Fluorescence polarization (mean) ([2]; log [nM] inhibitor 1.592): 101.890% | % Fluorescence polarization (mean) ([2]; log [nM] inhibitor 1.893): 93.660% | % Fluorescence polarization (mean) ([2]; log [nM] inhibitor 2.194): 79.820% | % Fluorescence polarization (mean) ([2]; log [nM] inhibitor 2.495): 50.610% | % Fluorescence polarization (mean) ([2]; log [nM] inhibitor 2.796): 29.820% | % Fluorescence polarization (mean) ([2]; log [nM] inhibitor 3.097): 10.200% | % Fluorescence polarization (mean) ([2]; log [nM] inhibitor 3.398): 5.680% | % Fluorescence polarization (mean) ([2]; log [nM] inhibitor 3.699): 2.100% | % Fluorescence polarization (mean) ([2]; log [nM] inhibitor 4.000): 0.000% | % Fluorescence polarization (mean) ([2]; log [nM] inhibitor […]): 0.000% | %holo RBP binding to TTR [3]: 8% and 6.2% and 5.8%
SMILES: Cc1n[nH]c(C)c1CCCOc1cc(OCCCCCCN)cc(C(=O)O)c1 [Compound 1]
%FPE probe fluorescence ([1]; time 1.000 h): 3.308% and 7.416% and 10.395% and 10.953% | %FPE probe fluorescence ([1]; time 1.250 h): 4.585% and 8.580% and 11.565% and 11.702% | %FPE probe fluorescence ([1]; time 1.500 h): 7.132% and 12.681% and 12.080% and 11.106% | %FPE probe fluorescence ([1]; time 1.750 h): 8.769% and 12.456% and 13.547% and 12.819% | %FPE probe fluorescence ([1]; time 2.000 h): 10.680% and 14.441% and 12.622% and 13.836% | %FPE probe fluorescence ([1]; time 2.250 h): 13.720% and 16.433% and 14.485% and 14.975% | %FPE probe fluorescence ([1]; time 2.500 h): 13.664% and 19.254% and 16.706% and 17.421% | %FPE probe fluorescence ([1]; time 2.750 h): 17.610% and 18.428% and 15.401% and 17.419% | %FPE probe fluorescence ([1]; time 3.000 h): 19.032% and 18.994% and 17.022% and 19.151% | %FPE probe fluorescence ([1]; time 3.500 h): 21.344% and 21.727% and 19.004% and 22.809% | %FPE probe fluorescence ([1]; time 3.750 h): 22.381% and 21.465% and 19.735% and 21.684% | %FPE probe fluorescence ([1]; time 4.000 h): 24.245% and 24.044% and 22.333% and 25.118% | %FPE probe fluorescence ([1]; time 4.250 h): 24.067% and 25.243% and 24.565% and 26.782% | %FPE probe fluorescence ([1]; time 4.500 h): 26.784% and 27.018% and 26.091% and 25.883% | %FPE probe fluorescence ([1]; time 4.750 h): 28.232% and 25.575% and 25.168% and 25.868% | %FPE probe fluorescence ([1]; time 5.000 h): 29.310% and 28.226% and 25.991% and 29.486% | %FPE probe fluorescence ([1]; time 5.250 h): 29.376% and 30.191% and 26.180% and 29.320% | %FPE probe fluorescence ([1]; time 5.500 h): 30.897% and 29.807% and 29.795% and 31.357% | %FPE probe fluorescence ([1]; time 5.750 h): 32.177% and 31.200% and 28.228% and 32.379% | %FPE probe fluorescence ([1]; time 6.000 h): 33.601% and 32.676% and 30.907% and 33.191%

SMILES: C[N+]1(CC2CC2)CC[C@]23c4c5ccc(O)c4O[C@H]2C(=O)CC[C@@]3(O)[C@H]1C5 (some centres unmarked) [MNTX]
affinity for the mu-opioid receptors as % of naltrexone [4]: 1% | pKi ([4]; read-out: binding affinity to mu-opioid receptor (Ki)): 7.66

SMILES: CN(C)C(=O)C(CCN1CCC(O)(c2ccc(Cl)cc2)CC1)(c1ccccc1)c1ccccc1 [Loperamide]
GI transit ([5]; 30 mg/kg): 30% | GI transit ([5]; subcutaneous 1 mg/kg): 50% | ED50 for inducing constipation ([5]; subcutaneous): 1 mg/kg
